Laboratory results: patent publication US20030229035A1, “Method of restoring ciliated cell motility” (priority 2001, published 2003)

Columns and labels:
PKC = details: no effect on PKC; cited from earlier work
PKA = PKA (Homo sapiens, UniProt P17612); details: vendor Tocris; cited from earlier work
PKG = target: T1, PKG (Homo sapiens, UniProt Q13976); details: no effect on PKG; cited from earlier work
T1 sequence (Q13976 1-671): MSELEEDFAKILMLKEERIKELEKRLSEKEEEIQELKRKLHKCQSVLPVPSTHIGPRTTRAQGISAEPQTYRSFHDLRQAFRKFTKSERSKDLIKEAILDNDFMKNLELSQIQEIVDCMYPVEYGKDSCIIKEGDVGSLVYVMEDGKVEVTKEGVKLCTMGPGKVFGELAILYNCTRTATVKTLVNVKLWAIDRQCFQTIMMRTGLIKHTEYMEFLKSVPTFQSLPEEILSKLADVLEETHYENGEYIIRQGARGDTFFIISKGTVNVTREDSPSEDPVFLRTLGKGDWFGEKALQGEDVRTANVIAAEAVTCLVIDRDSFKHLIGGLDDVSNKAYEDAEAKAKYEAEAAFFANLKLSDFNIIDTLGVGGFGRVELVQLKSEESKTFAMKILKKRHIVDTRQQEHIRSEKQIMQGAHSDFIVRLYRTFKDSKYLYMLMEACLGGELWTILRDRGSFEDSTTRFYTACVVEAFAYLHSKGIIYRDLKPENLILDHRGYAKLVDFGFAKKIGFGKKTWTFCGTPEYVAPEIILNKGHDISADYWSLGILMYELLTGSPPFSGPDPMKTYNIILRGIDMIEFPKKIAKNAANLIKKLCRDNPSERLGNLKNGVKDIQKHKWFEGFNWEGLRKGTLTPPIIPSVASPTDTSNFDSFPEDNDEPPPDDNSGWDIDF

proteasome pathway = experiment: Coupled in vitro transcription/translation of Insl6 using reticulocyte lysates with proteasome inhibition; format: biochemical; details: 5 μM, [35S] L-cysteine, FIG. 5E
Experimental: (§1) Based on the magnitude of difference in molecular weights between the two species (31-32 vs. 40 kDa), it was investigated whether Insl6 is ubiquinated. […] In contrast, the absence of the larger bands in a transcription/translation reaction using wheat germ extracts (FIG. 5C) supports the possibility that the Insl6 protein is ubiquinated. […] Briefly CHO cells stably expressing Insl6 were either exposed to vehicle (−) or 5 μM Clasto-Lactacystin-β-lactone (Clasto-L) (+) and cells harvested after 4 h (lanes A & B) or 24 h (lanes C & D). The cell lysates were Western blotted with anti-Insl6 antibody. To address te possibility that over-expression of Insl6 in the CHO cells may have facilitated aberrant ubiquination, the effect of inhibition of the proteasome pathway in a coupled in vitro transcriptiontranslation was investigated. The data obtained support the in vivo data showing that inhibition of the proteasome pathway results in decelerated rate of degradation of the Insl6 (FIG. 5E). Briefly, coupled in vitro transcription/translation of Insl6 using reticulocyte lysates performed in the presence of [^35S]

proteosome pathway = experiment: Proteasome inhibition in CHO cells stably expressing recombinant Insl6, Western blot with anti-Insl6 antibody; format: cell-based, chinese hamster; details: 5 μM, cells harvested after 4 h or 24 h, FIG. 5D
Experimental: as §1

MSC-1 cells = experiment: Proliferation of MSC-1 cells, colorimetric viable cell assay; format: cell-based, mouse; details: serum-deprived cells, varying time periods, conditioned medium from CHO cells expressing Insl6 vs non-transfected CHO; FIG. 12
Experimental: To further investigate the significance of alteration in the tyrosine phosphorylation status of MSC-1 proteins, the effects of Insl6 on proliferation of MSC-1 were tested. For these experiments serum-deprived MSC-1 cells were exposed for varying time periods to serum-free conditioned medium from either CHO cells expressing Insl6 or from non-transfected CHO cells and the number of viable cells determined by a colorimetic assay (celltiter 96 Aqueous One Solution Cell Proliferation Assay; Promega, Madison, Wis., USA).

[1] = test system: MSC-1 (mouse Sertoli cell line) cells; experiment: Tyrosine phosphorylation of MSC-1 cellular proteins, anti-phosphotyrosine Western blot; format: cell-based; details: serum-deprived cells, ten minutes, serum-free conditioned medium from CHO cells expressing Insl6 vs non-transfected CHO; FIG. 11A
Excerpt: The effect of Insl6 on Sertoli cells was confirmed by exposing serum-deprived MSC-1 (mouse Sertoli cell line) cells to serum-free conditioned medium containing recombinant Insl6 secreted by the CHO cells stably expressing epitope-tagged Ins16. The effect of Insl6 on the phosphorylation status of MSC-1 cellular proteins was initially investigated. […] Serum-deprived MSC-1 cells were exposed for ten minutes to serum-free conditioned medium from either CHO cells expressing Insl6 (lane A, FIG. 11A) or from non-transfected CHO cells (lane B, FIG. 11A). Cell lysates were subjected to reducing SDS-PAGE and blotted with antiphphosphotyrosine antibodies. The specific protein bands showing increased phosphorylation in response to Insl6 are indicated by the diamond and star symbols respectively.
(§2) Western Blot Analysis—Western blot analyses were carried out by established protocols known by those skilled in art. […] Equality of loading and efficiency of transfer were assessed by Ponceau staining of the nitrocellulose filters and protein concentration determined by Bradford's method (BioRad). […]

[2] = test system: rat primary Sertoli cells; experiment: Tyrosine phosphorylation profile of rat primary Sertoli cell proteins by Western blotting; format: cell-based; details: serum-deprived rat primary Sertoli cells, recombinant Insl6 in serum-free milieu
Excerpt: Although Sertoli cell lines are useful tools for investigating Sertoli cell function, they are important differences between primary Sertoli cells and established Sertoli cell lines. For example, compared to primary Sertoli cells, MSC-1 cells are relatively deficient in the FSH receptor. […] For this purpose, we exposed serum-deprived rat primary Sertoli cells to recombinant Insl6 in a serum-free milieu and determined the tyrosine phosphorylation profile of cellular proteins by Western blotting. […] Based on the premise that Insl6 belongs to the insulin family of proteins, the following canonical signaling pathways involving Insl6 action on Sertoli cells were investigated:
Isolation and culture of primary rat Sertoli cells—Rat Sertoli cells were isolated in our laboratory using a standardized protocol. […] The purity of the Sertoli cell isolate yielded by this protocol is >95% as determined by phase microscopy and alkaline phosphatase staining.
as §2

CCCCCCOC(=O)[C@]1(O)C[C@@H]2O[C@@]1(C)n1c3ccccc3c3c4c(c5c6ccccc6n2c5c31)C(=O)NC4 [KT 5720]
Ki (PKC): > 2000 nM | Ki (PKA): 60 nM | Ki (PKG): > 2000 nM

CC(C)[C@H](O)[C@@]12NC(=O)[C@H](C)[C@@H]1OC2=O [Clasto-Lactacystin-β-lactone]
effect on rate of degradation of Insl6 (proteasome pathway): decelerated rate of degradation of Insl6 | effect on half-life of Insl6 (proteosome pathway): prolongation of the half-life of Insl6

B1: Insl6: recombinant His-myc epitope-tagged murine Insl6, insulin family protein, secreted by stably expressing CHO cells (protein)
chain: EEESRPRKLCGRHLLIEVIKLCGQSDWSRFEMEEQSPMTQFFPHYSRKGKAFNPHPSSSAWRRFTNPVPAGVSQKKGTHTWEPQSLPDYQFEKTELLPKARVFSYHSGKPYVKSVQLQKKSTNKMNTFRSLFWGNHSQRKRRGFADKCCVIGCTKEEMAVACLPFVDF
modifications: left off: small tags and cut ends
effect on proliferation (MSC-1 cells): significantly inhibits the proliferation of MSC-1 in a time-dependent manner | effect on tyrosine phosphorylation of cellular proteins [1]: specific tyrosine phosphorylation of proteins of molecular weights of approximately 55 and 40 kDa | effect on tyrosine phosphorylation of cellular proteins [2]: alters the tyrosine phosphorylation status of cellular proteins
